The numbers were not newly measured in publication PMC8198792, “Prediction of Anticancer Peptides with High Efficacy and Low Toxicity by Hybrid Model Based on 3D Structure of Peptides” (International Journal of Molecular Sciences, 2021), which cites them from elsewhere.

Read-outs that look alike come from different tables or passages of the source.

Series [1] has as its system cancer cell lines. More on the design: method as in 6 sources, ref CancerPPD [45] and SATPdb ||| ref CancerPPD/SATPdb ||| ref CancerPPD, SATPdb, Swissprot (PDB) ||| ref CancerPPD/SATPdb/Swissprot(PDB) ||| ref CancerPPD / SATPdb ||| ... Conditions: cited from earlier work. An excerpt: Supplement ijms-22-05630-s001.zip/ACPs(seguence).xlsx, sheet "D1" | column: Activity || Supplement ijms-22-05630-s001.zip/ACPs(seguence).xlsx, sheet "D2" | column: Activity || Supplement ijms-22-05630-s001.zip/ACPs(seguence).xlsx, sheet "D3" | column: Activity || (+ 2 further places)

In series [2] the test system is erythrocytes. Conditions: cited from earlier work. An excerpt: Supplement ijms-22-05630-s001.zip/Hemloytic Peptides(seguence).xlsx, sheet "HD1" | column: Activity || Supplement ijms-22-05630-s001.zip/Hemloytic Peptides(seguence).xlsx, sheet "HD2" | column: Activity || Supplement ijms-22-05630-s001.zip/Hemloytic Peptides(seguence).xlsx, sheet "HD3" | column: Activity

The mark [3] stands for this setting: ACPs dataset D3 (supplement sheet "D3"), 1 = ACP, 0 = non-ACP, ref CancerPPD [45] and SATPdb.
Where [4] appears, read: ACPs dataset D4 (sheet "D4"), label 1 = ACP, 0 = non-ACP, ref CancerPPD / SATPdb.
Where [5] appears, read: ACPs dataset D5, sheet "D5", label 1 = ACP, 0 = non-ACP, ref CancerPPD [45] and SATPdb.
Where [6] appears, read: ACPs dataset D1, 1 = ACP (positive), 0 = non-ACP (negative), label taken from databases, ref CancerPPD [45] and SATPdb.
The mark [7] stands for this setting: ACPs dataset D4 (sheet "D4"), label 1 = ACP (CancerPPD ID), 0 = non-ACP (non-anticancer AMP, SATPdb ID), ref CancerPPD [45] and SATPdb.
Where [8] appears, read: hemolytic peptides dataset HD3, 1 = hemolytic (positive set), 0 = non-hemolytic (negative set), labels taken from databases, ref Hemolytik/SATPdb.
The mark [9] stands for this setting: natural hemolytic peptide dataset HD1, label collected from databases, ref Hemolytik [49], SATPdb [34].
[10] abbreviates: ACPs dataset D1, label 1 = ACP, 0 = non-ACP (non-anticancer AMPs from SATPdb), ref CancerPPD/SATPdb.
Setting [11] is: ACPs dataset D3 (sheet "D3"), label 1 = ACP, 0 = non-ACP, ref CancerPPD/SATPdb.
[12] abbreviates: Hemolytic peptides dataset HD2, label 1 = hemolytic, 0 = non-hemolytic, ref Hemolytik/SATPdb.

Consider AKKVFKRLEKLFSKIQNDK [satpdb11343], for which the Activity in series [1] (setting [3]), in series [1] (setting [4]), in series [1] (setting [5]) and in series [2] was 0 each time.

On to AKKVFKRLGIGAVLWVLTWG [satpdb10183], for which the Activity in series [1] (setting [6]) was 0; in series [1] (setting [7]) it was 0; in series [2] (setting [8]) it was 1. Besides, the “Activity (dataset HD1, hemolytic 1 / non-hemolytic 0)” value in series [2] (setting [9]) was 1.

Consider ALPLIGRVLSGIL [satpdb11361], for which the Activity in series [1] (setting [3]) is given as 0; in series [1] (setting [4]) it was 0; in series [1] (setting [5]), 0; in series [2], 1.

As to “ALWFTMLKKLGTMALHAGKAALGAAANTISQGTQ [satpdb13357]”, the Activity in series [1] (setting [10]) is listed as 0; in series [1] (setting [4]), 0; in series [2] it was 1. Moreover, the “Activity (dataset HD1, hemolytic 1 / non-hemolytic 0)” value in series [2] was 1.

Take “CGESCVFIPCISTLLGCSCKNKVCYRNGVIP [satpdb11124]”: the figures for the Activity in series [1] (setting [10]), in series [1] (setting [7]) and in series [2] (setting [8]) were 0, 0 and 1, respectively. For the same substance, the “Activity (dataset HD1, hemolytic 1 / non-hemolytic 0)” value in series [2] (setting [9]) is 1.

Turning to “CGESCVWIPCTITALAGCKCKSKVCYNSIP [satpdb10149]”, the Activity in series [1] (setting [10]) is 0; in series [1] (setting [7]), 0; in series [2] (setting [8]) it was 1. In series [2] (setting [9]), the “Activity (dataset HD1, hemolytic 1 / non-hemolytic 0)” value is 1.

“CIAKGNGCQPSGVQGNCCSGHCHKEPGWVAGYCK [satpdb13088]”: the Activity in series [1] (setting [11]), in series [1] (setting [4]), in series [1] (setting [5]), in series [2] (setting [12]) and in series [2] (setting [8]) was 0 each time.

Regarding DAACAAKCLWR [satpdb10773], the Activity in series [1] (setting [3]), in series [1] (setting [4]), in series [1] (setting [5]), in series [2] (setting [12]) and in series [2] (setting [8]) was 0 in each case.

DVNDLKNLCAKTHNLLPMCAMF [satpdb13885]: the Activity in series [1] (setting [11]), in series [1] (setting [4]), in series [1] (setting [5]) and in series [2] was 0 each time.

Turning to “DYDWSLRGPPKCATYGQKCRTWSPPNCCWNLRCKAFRCRPR [satpdb13169]”, the Activity is 0 in series [1] (setting [10]), 0 in series [1] (setting [4]) and 1 in series [2] (setting [8]). Besides, the “Activity (dataset HD1, hemolytic 1 / non-hemolytic 0)” value in series [2] (setting [9]) is given as 1.

For FIGAIARLLSKIF [satpdb13222], the Activity in series [1] (setting [10]) was 0; in series [1] (setting [4]), 0; in series [2] (setting [8]) it was 1. The “Activity (dataset HD1, hemolytic 1 / non-hemolytic 0)” value in series [2] (setting [9]) is on record as 1.

Take FKCKKVVISLRRY [satpdb11913]: the Activity in series [1] (setting [10]), in series [1] (setting [7]) and in series [2] (setting [8]) was 0 throughout. In series [2] (setting [9]), the “Activity (dataset HD1, hemolytic 1 / non-hemolytic 0)” value is listed as 0.

As to FLAGLIGGLAKMLGK [satpdb10461], the Activity in series [1] (setting [6]) is listed as 0; in series [1] (setting [7]) it was 0; in series [2] it was 1. In series [2], the “Activity (dataset HD1, hemolytic 1 / non-hemolytic 0)” value was 1.

Consider FLPAIAGILSQLF [satpdb10431], for which the Activity in series [1] (setting [3]) is reported as 0; in series [1] (setting [4]) it was 0; in series [1] (setting [5]), 0; in series [2] it was 1.

Regarding FLPILAGLAAKIVPKLFCLATKKC [satpdb11778], the Activity in series [1] (setting [10]) was 0; in series [1] (setting [7]), 0; in series [2], 1. Besides, the “Activity (dataset HD1, hemolytic 1 / non-hemolytic 0)” value in series [2] was 1.

On to FLPILGKLLSGIL [satpdb10106], for which the Activity in series [1] (setting [3]) was 0; in series [1] (setting [4]) it was 0; in series [1] (setting [5]), 0; in series [2] (setting [12]), 1; in series [2] (setting [8]) it was 1.

As for FLPLIGAVLSGIL [satpdb13723], the Activity is 0 in series [1] (setting [11]), 0 in series [1] (setting [4]), 0 in series [1] (setting [5]) and 1 in series [2].

As to FLPLIGRVLSGAL [satpdb13300], the Activity is reported as 0 in series [1] (setting [11]), 0 in series [1] (setting [4]), 0 in series [1] (setting [5]) and 1 in series [2].

In the case of FLPLIGRVLSGIA [satpdb10103], the Activity in series [1] (setting [3]) is 0; in series [1] (setting [4]), 0; in series [1] (setting [5]), 0; in series [2], 1.

Regarding FLSLALAALPKLFCLIFKKC [satpdb10291], the Activity in series [1] (setting [6]) is listed as 0; in series [1] (setting [7]), 0; in series [2] (setting [8]), 1. Also, in series [2] (setting [9]), the “Activity (dataset HD1, hemolytic 1 / non-hemolytic 0)” value is given as 1.

As to FLSTIWNGIKSLL [satpdb12436], the Activity is reported as 0 in series [1] (setting [11]); 0 in series [1] (setting [4]); 0 in series [1] (setting [5]); 1 in series [2] (setting [12]); 1 in series [2] (setting [8]).

FPFSLIPHAIGGLISAIK [satpdb11349]: the Activity in series [1] (setting [6]) is listed as 0; in series [1] (setting [7]), 0; in series [2] (setting [8]), 1. The “Activity (dataset HD1, hemolytic 1 / non-hemolytic 0)” value in series [2] (setting [9]) was 1.

Consider FQWQRNIRKVR [satpdb14534], for which the Activity in series [1] (setting [11]), in series [1] (setting [4]), in series [1] (setting [5]) and in series [2] was 0 throughout.

Take FRPKVTITIQGSARF [satpdb11995]: the Activity in series [1] (setting [11]), in series [1] (setting [4]), in series [1] (setting [5]) and in series [2] was 0 each time.

For the substance FSPQMLQDIIEKKTKIL [satpdb13152], the Activity in series [1] (setting [10]), in series [1] (setting [4]) and in series [2] was 0 throughout. Also, the “Activity (dataset HD1, hemolytic 1 / non-hemolytic 0)” value in series [2] is listed as 0.

As to FVPWFSKFLGRIL [satpdb13384], the Activity in series [1] (setting [11]) was 0; in series [1] (setting [4]), 0; in series [1] (setting [5]), 0; in series [2] (setting [12]) it was 1; in series [2] (setting [8]), 1.

With GFLSILKKVLAKVMAHMK [satpdb13478], the Activity in series [1] (setting [11]) is 0; in series [1] (setting [4]), 0; in series [1] (setting [5]) it was 0; in series [2] (setting [12]), 1; in series [2] (setting [8]), 1.

Turning to GFLSILKKVLGKVMAHMK [satpdb11125], the Activity is given as 0 in series [1] (setting [3]); 0 in series [1] (setting [4]); 0 in series [1] (setting [5]); 1 in series [2] (setting [12]); 1 in series [2] (setting [8]).

Consider GFLSSLKKSLPKSXAHSK [satpdb13158], for which the Activity is on record as 0 in series [1] (setting [11]); 0 in series [1] (setting [4]); 0 in series [1] (setting [5]); 1 in series [2] (setting [12]); 1 in series [2] (setting [8]).

VRRFPAAAPFLRR [satpdb24534]: in series [2], the Activity is on record as 0 and the “Activity (dataset HD1, hemolytic 1 / non-hemolytic 0)” value is recorded as 0.

Take VRRFPFFFPFLRR [satpdb22709]: in series [2], the Activity was 0 and the “Activity (dataset HD1, hemolytic 1 / non-hemolytic 0)” value is recorded as 0.

Turning to WKKIPKFLHLAKKF [satpdb14752], in series [2], the Activity is recorded as 0.

For WLKKW [satpdb27168], the Activity in series [2] (setting [12]) and in series [2] (setting [8]) was 0 throughout.

For WLLKW [satpdb27330], the Activity in series [2] (setting [12]) and in series [2] (setting [8]) was 0 throughout.

Consider WNPFKELERAGQRVRDAIISAAP [satpdb17819], for which, in series [2], the Activity is recorded as 0 and the “Activity (dataset HD1, hemolytic 1 / non-hemolytic 0)” value is reported as 0.

Turning to WYLTLTLGYGRR [satpdb16552], in series [2], the Activity is 1 and the “Activity (dataset HD1, hemolytic 1 / non-hemolytic 0)” value is 1.

For WYSEMKRNVQRLERAIEE [satpdb11990], in series [2], the Activity is 1.

As for fPOVO [satpdb21927], the Activity in series [2] (setting [12]) and in series [2] (setting [8]) was 0 each time.

For “kWkSFLkTFkSLKkTVLHTLLkAISS [satpdb10734]”, the Activity in series [2] (setting [12]) and in series [2] (setting [8]) was 1 each time.
